Literature values in patent US20060052322A1, “Combination treatment of cancer with elicitor of gene product expression and gene-product targeting agent” (INTROGEN THERAPEUTICS, INC., priority 2004, published 2006).
Where a name gives a salt, the structure may show the parent alone. Read-outs that look alike come from different tables or passages of the source. Starred links: 1 amine or outer side, 2 acyl side, 3 side chain; linkers in the order of their positions; H or OH if unused. Positions of bridges follow the written chain, without caps; N, C: chain ends. Non-standard residues stand in square brackets, D forms with d. Residues, ends and D or L forms follow the SMILES beside them. Chains are numbered I, II in the order given. Actinocin(9to1) = Cc1c2oc3c(C)ccc(C(=O)[*:1])c3nc-2c(C(=O)[*:2])c(N)c1=O; NMeV = CN[C@H](C(=O)O)C(C)C; Sar = CNCC(=O)O

Tests used:
[1] = share of dose

SMILES: Cc1c2oc3c(C)ccc(C(=O)N[C@@H]4C(=O)N[C@H](C(C)C)C(=O)N5CCC[C@H]5C(=O)N(C)CC(=O)N(C)[C@@H](C(C)C)C(=O)O[C@@H]4C)c3nc-2c(C(=O)N[C@@H]2C(=O)N[C@H](C(C)C)C(=O)N3CCC[C@H]3C(=O)N(C)CC(=O)N(C)[C@@H](C(C)C)C(=O)O[C@@H]2C)c(N)c1=O [Actinomycin D] (I: T[dV]P[Sar][NMeV] / II: T[dV]P[Sar][NMeV]; ester I:1-I:C, II:1-II:C; linker I:N-II:N via Actinocin(9to1))
- excreted/recovered in the urine [1]: 10%
- secreted/excreted into the bile [1]: Half

SMILES: CC[C@@]1(O)C(=O)OCc2c1cc1n(c2=O)Cc2cc3ccccc3nc2-1 [Camptothecin]
- storage stability (2-8° C., dry, airtight, light-resistant environment): at least two years

SMILES: COc1cccc2c1C(=O)c1c(O)c3c(c(O)c1C2=O)C[C@@](O)(C(C)=O)C[C@@H]3O[C@H]1C[C@H](N)[C@H](O)[C@H](C)O1 [Daunorubicin, 5,12-Naphthacenedione, (8S-cis)-8-acetyl-10-[(3-amino-2,3,6-trideoxy-a-L-lyxo-hexanopyranosyl)oxy]-7,8,9,10-tetrahydro-6,8,11-trihydroxy-10-methoxy-, hydrochloride]
- secreted/excreted into the bile [1]: ~40%

SMILES: COc1cccc2c1C(=O)c1c(O)c3c(c(O)c1C2=O)C[C@@](O)(C(=O)CO)C[C@@H]3O[C@H]1C[C@H](N)[C@H](O)[C@H](C)O1 [Doxorubicin, 5,12-Naphthacenedione, (8s-cis)-10-[(3-amino-2,3,6-trideoxy-a-L-lyxo-hexopyranosyl)oxy]-7,8,9,10-tetrahydro-6,8,11-trihydroxy-8-(hydroxyacetyl)-1-methoxy-hydrochloride]
- excreted/recovered in the urine [1]: a few percent

SMILES: O=NN(CCCl)C(=O)NC1CCCCC1 [Lomustine, 1-(2-chloro-ethyl)-3-cyclohexyl-1 nitrosourea]
- solubility (absolute alcohol): 70 mg per ml
- solubility (water): < 0.05 mg per ml

SMILES: CO[C@@]12[C@H](COC(N)=O)C3=C(C(=O)C(C)=C(N)C3=O)N1C[C@@H]1N[C@@H]12 [Mitomycin]
- excreted/recovered in the urine [1]: Approximately 10%

SMILES: CC[C@]1(O)C[C@@H]2CN(CCc3c([nH]c4ccccc34)[C@@](C(=O)OC)(c3cc4c(cc3OC)N(C)[C@H]3[C@@](O)(C(=O)OC)[C@H](OC(C)=O)[C@]5(CC)C=CCN6CC[C@]43[C@@H]65)C2)C1 [Vinblastine]
- excreted/recovered in the urine [1]: Approximately 15%
